Data taken from PubChem BioAssay (NCI).
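Assay format: 96-well plates, 48-hour exposure. Definition used: TGI = concentration required for complete inhibition of growth.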

Tests used:
Experiment in all cases: DTP human tumour cell line panel, 48 h
OVCAR-3 ovarian = test system: OVCAR-3 ovarian
ACHN renal = test system: ACHN renal
TK-10 renal = test system: TK-10 renal
HS 578T breast = test system: HS 578T breast
T-47D breast = test system: T-47D breast
SNB-75 CNS = test system: SNB-75 CNS
RXF 393 renal = test system: RXF 393 renal
UO-31 renal = test system: UO-31 renal
CCRF-CEM leukemia = test system: CCRF-CEM leukemia
K-562 leukemia = test system: K-562 leukemia
CAKI-1 renal = test system: CAKI-1 renal
OVCAR-5 ovarian = test system: OVCAR-5 ovarian
OVCAR-4 ovarian = test system: OVCAR-4 ovarian
SW-620 colon = test system: SW-620 colon
PC-3 prostate = test system: PC-3 prostate
SK-MEL-28 melanoma = test system: SK-MEL-28 melanoma
HOP-62 NSCLC = test system: HOP-62 NSCLC
SNB-19 CNS = test system: SNB-19 CNS
SF-295 CNS = test system: SF-295 CNS
DU-145 prostate = test system: DU-145 prostate
KM12 colon = test system: KM12 colon
SN12C renal = test system: SN12C renal
NCI-H226 lung = test system: NCI-H226 lung
MDA-MB-231 breast = test system: MDA-MB-231 breast
MCF7 breast = test system: MCF7 breast
SF-268 CNS = test system: SF-268 CNS
SK-MEL-2 melanoma = test system: SK-MEL-2 melanoma
HCC-2998 colon = test system: HCC-2998 colon
MDA-N = test system: MDA-N
SK-OV-3 ovarian = test system: SK-OV-3 ovarian
SF-539 CNS = test system: SF-539 CNS
MDA-MB-435 = test system: MDA-MB-435
UACC-257 melanoma = test system: UACC-257 melanoma
SK-MEL-5 melanoma = test system: SK-MEL-5 melanoma
NCI/ADR-RES ovarian = test system: NCI/ADR-RES ovarian
A498 renal = test system: A498 renal
LOX IMVI melanoma = test system: LOX IMVI melanoma
RPMI-8226 leukemia = test system: RPMI-8226 leukemia
786-0 renal = test system: 786-0 renal
HOP-92 NSCLC = test system: HOP-92 NSCLC
UACC-62 melanoma = test system: UACC-62 melanoma
HCT-116 colon = test system: HCT-116 colon
EKVX NSCLC = test system: EKVX NSCLC
U251 CNS = test system: U251 CNS
A549 NSCLC = test system: A549 NSCLC
M14 melanoma = test system: M14 melanoma
HCT-15 colon = test system: HCT-15 colon
NCI-H23 lung = test system: NCI-H23 lung
HT29 colon = test system: HT29 colon
MALME-3M melanoma = test system: MALME-3M melanoma
NCI-H522 lung = test system: NCI-H522 lung
IGROV1 ovarian = test system: IGROV1 ovarian
OVCAR-8 ovarian = test system: OVCAR-8 ovarian
COLO 205 colon = test system: COLO 205 colon
HL-60(TB) leukemia = test system: HL-60(TB) leukemia
MOLT-4 leukemia = test system: MOLT-4 leukemia

SMILES: CC1(C)[C@@H](Cn2nnc3c(N)ncnc32)CC[C@@]1(C)CO
- TGI (OVCAR-3 ovarian): > 100 µM
- TGI (ACHN renal): > 100 µM
- TGI (TK-10 renal): > 100 µM
- TGI (HS 578T breast): > 100 µM
- TGI (T-47D breast): > 100 µM
- TGI (SNB-75 CNS): > 100 µM
- TGI (RXF 393 renal): > 100 µM
- TGI (UO-31 renal): > 100 µM
- TGI (CCRF-CEM leukemia): > 100 µM
- TGI (K-562 leukemia): > 100 µM
- TGI (CAKI-1 renal): > 100 µM
- TGI (OVCAR-5 ovarian): > 100 µM
- TGI (OVCAR-4 ovarian): > 100 µM
- TGI (SW-620 colon): > 100 µM
- TGI (PC-3 prostate): > 100 µM
- TGI (SK-MEL-28 melanoma): > 100 µM
- TGI (HOP-62 NSCLC): > 100 µM
- TGI (SNB-19 CNS): > 100 µM
- TGI (SF-295 CNS): > 100 µM
- TGI (DU-145 prostate): > 100 µM
- TGI (KM12 colon): > 100 µM
- TGI (SN12C renal): > 100 µM
- TGI (NCI-H226 lung): > 100 µM
- TGI (MDA-MB-231 breast): > 100 µM
- TGI (MCF7 breast): > 100 µM
- TGI (SF-268 CNS): > 100 µM
- TGI (SK-MEL-2 melanoma): > 100 µM
- TGI (HCC-2998 colon): 29 µM
- TGI (MDA-N): > 100 µM
- TGI (SK-OV-3 ovarian): > 100 µM
- TGI (SF-539 CNS): > 100 µM
- TGI (MDA-MB-435): > 100 µM
- TGI (UACC-257 melanoma): > 100 µM
- TGI (SK-MEL-5 melanoma): > 100 µM
- TGI (NCI/ADR-RES ovarian): > 100 µM
- TGI (A498 renal): > 100 µM
- TGI (LOX IMVI melanoma): > 100 µM
- TGI (RPMI-8226 leukemia): > 100 µM
- TGI (786-0 renal): > 100 µM
- TGI (HOP-92 NSCLC): > 100 µM
- TGI (UACC-62 melanoma): > 100 µM
- TGI (HCT-116 colon): > 100 µM
- TGI (EKVX NSCLC): > 100 µM
- TGI (U251 CNS): > 100 µM
- TGI (A549 NSCLC): > 100 µM
- TGI (M14 melanoma): > 100 µM
- TGI (HCT-15 colon): > 100 µM

SMILES: CCC#CCCCCCCCCC(F)C(=O)O (configuration not stated)
- TGI (OVCAR-3 ovarian): > 100 µM
- TGI (ACHN renal): > 100 µM
- TGI (TK-10 renal): > 100 µM
- TGI (HS 578T breast): > 100 µM
- TGI (T-47D breast): > 100 µM
- TGI (SNB-75 CNS): > 100 µM
- TGI (RXF 393 renal): > 100 µM
- TGI (UO-31 renal): > 100 µM
- TGI (CCRF-CEM leukemia): > 100 µM
- TGI (K-562 leukemia): > 100 µM
- TGI (NCI-H23 lung): > 100 µM
- TGI (HT29 colon): > 100 µM
- TGI (CAKI-1 renal): > 100 µM
- TGI (OVCAR-5 ovarian): > 100 µM
- TGI (OVCAR-4 ovarian): > 100 µM
- TGI (SW-620 colon): > 100 µM
- TGI (PC-3 prostate): > 100 µM
- TGI (SK-MEL-28 melanoma): > 100 µM
- TGI (HOP-62 NSCLC): > 100 µM
- TGI (SNB-19 CNS): > 100 µM
- TGI (SF-295 CNS): > 100 µM
- TGI (DU-145 prostate): > 100 µM
- TGI (MALME-3M melanoma): > 100 µM
- TGI (KM12 colon): > 100 µM
- TGI (SN12C renal): > 100 µM
- TGI (NCI-H226 lung): > 100 µM
- TGI (MDA-MB-231 breast): > 100 µM
- TGI (NCI-H522 lung): > 100 µM
- TGI (IGROV1 ovarian): > 100 µM
- TGI (MCF7 breast): > 100 µM
- TGI (SF-268 CNS): > 100 µM
- TGI (SK-MEL-2 melanoma): > 100 µM
- TGI (OVCAR-8 ovarian): > 100 µM
- TGI (HCC-2998 colon): > 100 µM
- TGI (MDA-N): > 100 µM
- TGI (SK-OV-3 ovarian): > 100 µM
- TGI (COLO 205 colon): > 100 µM
- TGI (SF-539 CNS): > 100 µM
- TGI (HL-60(TB) leukemia): > 100 µM
- TGI (MDA-MB-435): > 100 µM
- TGI (UACC-257 melanoma): > 100 µM
- TGI (SK-MEL-5 melanoma): > 100 µM
- TGI (NCI/ADR-RES ovarian): > 100 µM
- TGI (A498 renal): > 100 µM
- TGI (LOX IMVI melanoma): > 100 µM
- TGI (RPMI-8226 leukemia): > 100 µM
- TGI (786-0 renal): > 100 µM
- TGI (HOP-92 NSCLC): > 100 µM
- TGI (HCT-116 colon): > 100 µM
- TGI (EKVX NSCLC): > 100 µM
- TGI (U251 CNS): > 100 µM
- TGI (A549 NSCLC): > 100 µM
- TGI (M14 melanoma): > 100 µM
- TGI (HCT-15 colon): > 100 µM
- TGI (MOLT-4 leukemia): > 100 µM
